Patent US7638623B2, “Galactoside inhibitors of galectins” (Forskarpatent I SYD AB, priority 2004, dated 2009)

Experiments:
galectin-3 = molecular target: T1, galectin-3 (Homo sapiens, UniProt P17931); test: fluorescence polarization-based galectin-3 inhibition assay; type: binding; details: read-out: Calculated Kd
T1 construct: made in house; host or cells: Escherichia coli
Procedure: NMR-spectra were recorded with a Bruker DRX-400 instrument. Chemical shifts are given in ppm, with reference to internal residual solvent peaks. Chemical shifts and coupling constants were obtained from ^1H-NMR and proton resonances were assigned from COSY experiments. High-resolution FAB mass spectra (HRMS) were recorded with a JEOL SX-120 instrument. Fluorescence polarization experiments were performed on a PolarStar instrument (BMG, Offenburg; Germany). Column chromatography was performed on SiO2 (Matrex, 60 Å, 35-70 μm, Grace Amicon) and TLC was carried out on SiO2 60 F254 (Merck) with detection under UV light and developed with aqueous sulfuric acid. Concentrations were made using rotary evaporation with bath temperature at or below 40° C. CH2Cl2 and CH3CN were dried by distillation from CaH2.
To 100 μL of galectin-3 (1 μM) and a fluorescent probe (2-(fluorescein-5/6-yl-carbonyl)-aminoethyl 4-O-[3-O-(4-methoxylbenzyl)-β-D-galactopyranosyl]-β-D-glucopyranoside, 0.1 μM) were added inhibitor solution (3.2-80 μM, 100 μL), the plate was incubated under slow rotary shaking in the dark for 5 minutes, and fluorescence polarization measured at room temperature. The fluorescence was measured from above in 96 well microtiter plates (black polystyrene, Costar, Corning, N.Y.) using a PolarStar instrument (BMG, Offenburg; Germany). Control wells containing only fluorescent probe or fluorescein were included. All dilutions and measurements were done in PBS.

galectins = details: cited from earlier work

T1 sequence (P17931 whole entry): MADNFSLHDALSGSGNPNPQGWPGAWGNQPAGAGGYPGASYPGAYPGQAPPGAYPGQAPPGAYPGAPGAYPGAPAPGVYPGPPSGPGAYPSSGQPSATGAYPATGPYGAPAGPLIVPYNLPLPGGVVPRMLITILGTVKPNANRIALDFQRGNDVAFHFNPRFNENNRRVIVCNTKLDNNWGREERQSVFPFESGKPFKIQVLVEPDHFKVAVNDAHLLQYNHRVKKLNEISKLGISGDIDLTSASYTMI

SMILES	Kd (galectin-3)	also measured
O=C(N[C@H]1[C@@H](O)[C@@H](CO)O[C@@H](S[C@@H]2O[C@H](CO)[C@H](O)[C@H](NC(=O)c3ccccc3)[C@H]2O)[C@@H]1O)c1ccccc1 [Compound 17, Bis-(3-deoxy-3-benzamido-β-D-galactopyranosyl) sulfane]	1440 nM	
COc1cc(OC)cc(C(=O)NC2C(O)[C@H](S[C@@H]3OC(CO)[C@H](O)C(NC(=O)c4cc(OC)cc(OC)c4)C3O)OC(CO)[C@@H]2O)c1 (stereo partly drawn) [Compound 19, Bis-[3-deoxy-(3,5-dimethoxybenzamido)-β-D-galactopyranosyl]sulfane]	20 nM	
O=C[C@H](O)[C@@H](O)[C@@H](O)[C@H](O)CO [D-galactose]		affinity, times lower than lactose (galectins; relative to lactose): 50-100 times
OC[C@H]1O[C@@H](O[C@H]2[C@H](O)[C@@H](O)C(O)O[C@@H]2CO)[C@H](O)[C@@H](O)[C@H]1O (stereo partly shown) [lactose]		Kd (galectins; all galectins): 500 to 1000 µM

Continued, in another order:

Kd (galectin-3)	SMILES	also measured
50 nM	O=C(N[C@H]1[C@@H](O)[C@@H](CO)O[C@@H](S[C@@H]2O[C@H](CO)[C@H](O)[C@H](NC(=O)c3ccc([N+](=O)[O-])cc3)[C@H]2O)[C@@H]1O)c1ccc([N+](=O)[O-])cc1 [Compound 20, Bis-[3-deoxy-3-(4-nitrobenzamido)-β-D-galactopyranosyl]sulfane]	
30 nM	O=C(N[C@H]1[C@@H](O)[C@@H](CO)O[C@@H](S[C@@H]2O[C@H](CO)[C@H](O)[C@H](NC(=O)c3ccc4ccccc4c3)[C@H]2O)[C@@H]1O)c1ccc2ccccc2c1 [Compound 21, Bis-[3-deoxy-3-(2-naphthamido)-β-D-galactopyranosyl]sulfane]	
52000 nM	CO[C@@H]1OC(CO)[C@@H](O[C@@H]2OC(CO)[C@H](O)C(O)C2O)C(O)C1NC(C)=O (stereo partly drawn) [Compound 22, methyl β-glycoside of N-acetyllactosamine, reference compound]	
